Measured values published in US20230233690A1, “ANDROGEN RECEPTOR PROTEIN DEGRADERS” (THE REGENTS OF THE UNIVERSITY OF MICHIGAN, priority 2020, published 2023).

Assays:
AR protein [1] = experiment: Western blotting of AR protein degradation in MDA-MB-453 cells; assay type: cell-based; set-up: key: A: >90% degradation (24 hr treatment); B: >50% degradation but <90% (24 hr treatment); C: >10% degradation but <50% (24 hr treatment); D: No significant degradation (24 hr treatment); conditions: 24 hr treatment
Experimental: (§1) The appropriate cell line, e.g., prostate cancer LNCaP, Vcap, or MDA-MB-453 cell line, was treated with Compounds of the Disclosure. The treated cells were lysed with RIPA buffer. The AR level in the cell lysates was examined by western blotting and a specific AR antibody (ab194196, Abcam, Cambridge, Mass. 02139) with concentration of 1:20,000. GAPDH was used as a loading control.
(§2) Bands were quantified with ImageJ software. The relative numbers of each band obtained from normalization with its corresponding GAPDH level were compared with Prism 8 software. The DC50 values were produced from Prism 8, and the DC90 values were calculated with an equation=Bottom+(Top−Bottom)/(1+10^((Log EC50−X)*HillSlope) based on DC50 and Hillslope values.
(§3) The amount of AR protein degradation in LNCaP, VCap, and MDA-MB-453 cells caused representative Compounds of the Disclosure at the concentrations indicated is presented in Table 4 and Table 5.

[2] = PK parameters in male ICR mice; assay type: in vivo
Experimental: (§4) The pharmacokinetics (PK) of representative Compounds of the Disclosure were evaluated in mice or rats to provide an assessment of their oral bioavaibility. All animal experiments were performed under the guidelines of the University of Michigan Committee for Use and Care of Animals and using an approved animal protocol.

[3] = PK parameters in male SD rats; assay type: in vivo; conditions: for AUC(0-t) / clearance / Vd / Cmax / half-life: rat, in vivo; for clearance: read-out: Cl-obs; for Vd: read-out: Vss
Experimental: as §4

AR protein [4] = molecular target: T1, AR protein (Homo sapiens, UniProt P10275, T878A); experiment: Western blotting of AR protein degradation in LNCaP cells; assay type: cell-based; conditions: 24 hr treatment
T1 construct: endogenous in cells; host or cells: LNCaP
T1 sequence (P10275 1-920 T878A): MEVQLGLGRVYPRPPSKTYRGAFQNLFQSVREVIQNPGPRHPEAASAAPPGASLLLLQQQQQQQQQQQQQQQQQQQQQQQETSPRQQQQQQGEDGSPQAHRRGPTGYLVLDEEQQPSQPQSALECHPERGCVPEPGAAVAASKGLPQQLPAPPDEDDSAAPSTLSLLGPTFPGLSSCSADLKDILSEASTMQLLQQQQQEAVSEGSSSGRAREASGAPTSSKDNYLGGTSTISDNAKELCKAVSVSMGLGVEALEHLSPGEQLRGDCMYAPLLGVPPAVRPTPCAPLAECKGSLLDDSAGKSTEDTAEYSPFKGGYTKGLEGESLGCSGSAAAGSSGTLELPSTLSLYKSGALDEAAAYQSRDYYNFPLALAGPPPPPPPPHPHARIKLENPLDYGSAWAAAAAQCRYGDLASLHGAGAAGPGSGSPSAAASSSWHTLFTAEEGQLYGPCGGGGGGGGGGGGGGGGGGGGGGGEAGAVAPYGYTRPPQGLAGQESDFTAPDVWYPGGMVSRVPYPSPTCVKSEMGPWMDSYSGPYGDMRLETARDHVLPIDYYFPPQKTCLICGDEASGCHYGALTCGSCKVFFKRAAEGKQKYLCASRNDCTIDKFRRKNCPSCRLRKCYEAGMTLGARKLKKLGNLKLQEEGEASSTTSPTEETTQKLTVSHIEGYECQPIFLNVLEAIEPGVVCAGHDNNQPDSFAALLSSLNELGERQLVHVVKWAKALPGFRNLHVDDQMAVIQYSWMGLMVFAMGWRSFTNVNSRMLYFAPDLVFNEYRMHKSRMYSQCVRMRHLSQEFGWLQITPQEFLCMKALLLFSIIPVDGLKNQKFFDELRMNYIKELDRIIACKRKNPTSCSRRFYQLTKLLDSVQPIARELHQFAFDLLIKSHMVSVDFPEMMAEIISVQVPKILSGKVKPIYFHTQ
Experimental: as §1, §2, §3

## N#Cc1ccc(O[C@@H]2CCC[C@@H](Oc3ccc(C4CCN(CC5CCN(c6cccc7c6C(=O)N(C6CCC(=O)NC6=O)C7=O)CC5)CC4)cc3)C2)cc1Cl (stereo partly shown) [compound 54]
AR protein [1]
  AR protein degradation MDA-MB-453 100 nM: C (>10% degradation but <50% (24 hr treatment))

## CC1(C)[C@H](NC(=O)c2ccc(N3CCN(C4CN(c5ccc6c(c5)C(=O)N(C5CCC(=O)NC5=O)C6=O)C4)CC3)cc2)C(C)(C)[C@H]1Oc1ccc(C#N)c(Cl)c1 (stereo partly shown) [Cpd. No. 113, N-((1r,3r)-3-(3-chloro-4-cyanophenoxy)-2,2,4,4-tetramethylcyclobutyl)-4-(4-(1-(2-(2,6-dioxopiperidin-3-yl)-1,3-dioxoisoindolin-5-yl)azetidin-3-yl)piperazin-1-yl)benzamide]
[2]; PO 5 mg/kg
  F: 62.2%
[2]; mouse, in vivo, IV 2 mg/kg, read-out: AUC0-t
  AUC(0-t): 14.6 µg·h/mL
[2]; mouse, in vivo, IV 2 mg/kg, read-out: Cl-obs
  clearance: 0.102 L/h/kg
[2]; mouse, in vivo, IV 2 mg/kg, read-out: Vss
  Vd: 1.7 L/kg
[2]; mouse, in vivo, PO 5 mg/kg
  half-life: 10.3 h
[2]; mouse, in vivo, PO 5 mg/kg, read-out: AUC0-t
  AUC(0-t): 22.7 µg·h/mL
[2]; mouse, in vivo, PO 5 mg/kg, read-out: Cmax
  Cmax: 1.82 µg/mL
[3]; PO 5 mg/kg
  F: 25.0%
  AUC(0-t): 5.72 µg·h/mL
  Cmax: 0.414 µg/mL
  half-life: 10.4 h
[3]; IV 2 mg/kg
  AUC(0-t): 9.14 µg·h/mL
  clearance: 0.186 L/h/kg
  Vd: 2 L/kg

## N#Cc1ccc(O[C@@H]2CCC[C@@H](Oc3ccc(N4CCN(CC5CCN(c6ccc7c(c6)C(=O)N(C6CCC(=O)NC6=O)C7=O)CC5)CC4)cc3)C2)cc1Cl (stereo partly shown) [compound 55]
AR protein [1]
  AR protein degradation MDA-MB-453 100 nM: C (>10% degradation but <50% (24 hr treatment))

## CC1(C)[C@H](NC(=O)c2ccc(N3CCN(C4CCN(c5ccc6c(c5)C(=O)N(C5CCC(=O)NC5=O)C6=O)CC4)CC3)cc2)C(C)(C)[C@H]1Oc1ccc(C#N)c(Cl)c1 (stereo partly shown) [Cpd. No. 114, N-((1r,3r)-3-(3-chloro-4-cyanophenoxy)-2,2,4,4-tetramethylcyclobutyl)-4-(4-(1-(2-(2,6-dioxopiperidin-3-yl)-1,3-dioxoisoindolin-5-yl)piperidin-4-yl)piperazin-1-yl)benzamide]
[2]; IV 2 mg/kg
  AUC(0-t): 15.7588 µg·h/mL
  Cl-obs: 0.102 L/h/kg
  Vss: 1.5 L/kg
[2]; PO 5 mg/kg
  AUC(0-t): 14.5877 µg·h/mL
  Cmax: 0.9801 µg/mL
  F: 37.0%
  T1/2: 11.2 h
[3]; PO 5 mg/kg
  F: 11.4%
  AUC(0-t): 4.16 µg·h/mL
  Cmax: 0.1 µg/mL
  half-life: 8.9 h
[3]; IV 2 mg/kg
  AUC(0-t): 1.19 µg·h/mL
  clearance: 0.462 L/h/kg
  Vd: 2.5 L/kg

## N#Cc1ccc(O[C@H]2CC[C@H](Oc3ccc(C4CCN(CC5CCN(c6ccc7c(c6)C(=O)N(C6CCC(=O)NC6=O)C7=O)CC5)CC4)cc3)CC2)cc1Cl (stereo partly shown) [compound 52]
AR protein [1]
  AR protein degradation MDA-MB-453 10 nM: D
  AR protein degradation MDA-MB-453 100 nM: D

## CC1(C)[C@H](NC(=O)c2ccc(N3CCC(N4CCN(c5ccc6c(c5)C(=O)N(C5CCC(=O)NC5=O)C6=O)CC4)CC3)cc2)C(C)(C)[C@H]1Oc1ccc(C#N)c(Cl)c1 (stereo partly shown) [compound 189, N-((1r,3r)-3-(3-chloro-4-cyanophenoxy)-2,2,4,4-tetramethylcyclobutyl)-4-(4-(4-(2-(2,6-dioxopiperidin-3-yl)-1,3-dioxoisoindolin-5-yl)piperazin-1-yl)piperidin-1-yl)benzamide]
[2]; IV 1 mg/kg
  AUC(0-t): 4.3337 µg·h/mL
  Cl-obs: 0.132 L/h/kg
  Vss: 3.8 L/kg
[2]; PO 3 mg/kg
  AUC(0-t): 3.127 µg·h/mL
  Cmax: 0.207 µg/mL
  F: 24%
  T1/2: 12.4 h

## CC1(C)[C@H](NC(=O)c2ccc(N3CCN(CCCCCOc4cccc5c4CN(C4CCC(=O)NC4=O)C5=O)CC3)nc2)C(C)(C)[C@H]1Oc1ccc(C#N)c(Cl)c1 (stereo partly shown) [compound 50]
AR protein [4]; 10 nM
  AR protein degradation LNCAP 10 nM: A (>90% degradation (24 hr treatment))
AR protein [4]; 100 nM
  AR protein degradation LNCAP 100 nM: A (>90% degradation (24 hr treatment))

## N#Cc1ccc(O[C@H]2CC[C@H](Oc3ccc(C4CCN(CC5CCN(c6cccc7c6C(=O)N(C6CCC(=O)NC6=O)C7=O)CC5)CC4)cc3)CC2)cc1Cl (stereo partly shown) [compound 53]
AR protein [1]
  AR protein degradation MDA-MB-453 10 nM: D
  AR protein degradation MDA-MB-453 100 nM: C (>10% degradation but <50% (24 hr treatment))

## CC1(C)[C@H](NC(=O)c2ccc(N3CCN(CC4CN(c5ccc6c(c5)C(=O)N(C5CCC(=O)NC5=O)C6=O)C4)CC3)cc2)C(C)(C)[C@H]1Oc1ccc(C#N)c(Cl)c1 (stereo partly shown) [Cpd. No. 112, N-((1r,3r)-3-(3-chloro-4-cyanophenoxy)-2,2,4,4-tetramethylcyclobutyl)-4-(4-((1-(2-(2,6-dioxopiperidin-3-yl)-1,3-dioxoisoindolin-5-yl)azetidin-3-yl)methyl)piperazin-1-yl)benzamide]
[2]; IV 2 mg/kg
  AUC(0-t): 11.0348 µg·h/mL
  Cl-obs: 0.114 L/h/kg
  Vss: 2.7 L/kg
[2]; PO 5 mg/kg
  AUC(0-t): 20.5998 µg·h/mL
  Cmax: 1.3894 µg/mL
  F: 74.7%
  T1/2: 12.0 h

## N#Cc1ccc(OC2CCC(Oc3ccc(C#CC4CCN(CC5CCN(c6ccc7c(c6)C(=O)N(C6CCC(=O)NC6=O)C7=O)CC5)CC4)cc3)CC2)cc1Cl (stereo not shown) [compound 51]
AR protein [1]
  AR protein degradation MDA-MB-453 10 nM: D
  AR protein degradation MDA-MB-453 100 nM: D
